Source: patent US8916709B2, “1,2,4-oxadiazole and 1,2,4-thiadiazole β-lactamase inhibitors” (priority 2012, dated 2014)
Structures can show the parent of a compound that is named as a salt.

What was measured:
[1] = system: bacterial strains that express OXA-15 β-lactamases; experiment: Standard BLI potentiation MIC / synergy MIC assays, strains expressing OXA-15; assay type: cell-based, E. coli; settings: in combination with a β-lactam; versus Avibactam (comparator compound CCC)
Excerpt: (§1) A set of β-lactamase expressing isogenic E. coli strains was constructed by cloning a β-lactamase gene into a customized derivative of pBR322 (GenBank Accession Number J01749) and transforming the engineered plasmids into E. coli. The NdeI restriction site within the plasmid backbone of pBR322 was removed to generate pBR322ΔNdeI. The pBR322ΔNdeI vector itself, minus the blaTEM-1 gene, was amplified using two primers: (1) pBR-Pbla 5′-[…]-3, SEQ ID 1, a primer with an engineered NdeI restriction site at the 3′ end of the blaTEM-1 promoter and (2) pBR-vec-1 5′-[…]-3′, SEQ ID 2, a primer with an engineered BamHI restriction site at the 3′ end of the blaTEM-1 open reading frame. The chloramphenicol resistance gene, cat, was generated by PCR amplification from pKD3 (GenBank Accession Number AY048742) using primers with an engineered NdeI restriction site at the 5′ end (Pbla-cat 5′-[…]-3′, SEQ ID 3) and an engineered BamHI restriction site at the 3′ end (Vec-1-cat 5′-[…]-3′, SEQ ID 4) of the resistance gene. The two PCR products, pBR322ΔNdeI and cat were ligated together generating pBR-CBST (pBR322ΔNdeI ΔTEM-1::cat Seq. ID 5) which retains both the pBR322 tetracycline resistance cassette, tetA, and the plasmid origin of replication but the blaTEM-1 gene was replaced by the cat gene.
(§2) Using this engineering strategy a number of plasmids producing β-lactamase genes from different classes (see below) were generated using synthetic genes with an engineered NdeI restriction site at the 5′ end and BamHI restriction site at the 3′ end of each gene (GenScript). Both the synthetic β-lactamase genes and cat gene were ligated into the NdeI/BamHI sites of the pBR322ΔNdeI PCR product and transformed into electrocompetent E. coli ElectroMax DH10B (Invitrogen/Life Technologies). E. coli DH10B harboring the recombinant plasmids were selected on LB agar (supplemented with 25 μg/mL tetracycline) and single isolated colonies were then inoculated into 5 mL LB media (supplemented with 25 μg/mL tetracycline), and incubated at 37° C. with aeration (250 rpm) for 18 hrs. The cultures were frozen back at −80° C. in 20% glycerol. The DNA sequence of the cloned β-lactamase genes was confirmed. The β-lactamase gene expression in the recombinant E. coli strains was driven by the blaTEM-1 promoter in the pBR-CBST plasmid and was characterized by MIC profiling of the E. coli recombinant strains against comparator β-lactam/BLI combinations in broth microdilution assay. […]

[2] = system: bacterial strains that express KPC β-lactamases; experiment: Standard BLI potentiation MIC / synergy MIC assays, strains expressing KPC; assay type: cell-based; settings: in combination with a β-lactam; versus Avibactam
Excerpt: as §1, §2

Row | Structure (SMILES) | activity against strains that express OXA-15 β-lactamases compared with Avibactam [1] | activity / spectrum of activity against strains that express KPC β-lactamases compared with Avibactam [2]
1 | O=C1N2C[C@@H](CC[C@H]2c2ncon2)N1OS(=O)(=O)O [Compound 804, (2S,5R)-2-(1,2,4-oxadiazol-3-yl)-7-oxo-1,6-diazabicyclo[3.2.1]octan-6-yl hydrogen sulfate] | more active than Avibactam | more active than, and/or show a better spectrum of activity than Avibactam
2 | Nc1nc([C@@H]2CC[C@@H]3CN2C(=O)N3OS(=O)(=O)O)no1 [Compound 805, (2S,5R)-2-(5-amino-1,2,4-oxadiazol-3-yl)-7-oxo-1,6-diazabicyclo[3.2.1]octan-6-yl hydrogen sulfate] | more active than Avibactam | more active than, and/or show a better spectrum of activity than Avibactam
3 | O=C1N2C[C@@H](CC[C@H]2c2ncno2)N1OS(=O)(=O)O [Compound 801, (2S,5R)-2-(1,2,4-oxadiazol-5-yl)-7-oxo-1,6-diazabicyclo[3.2.1]octan-6-yl hydrogen sulfate] | more active than Avibactam | more active than, and/or show a better spectrum of activity than Avibactam
4 | CCCC[N+](CCCC)(CCCC)CCCC.Nc1noc([C@@H]2CC[C@@H]3CN2C(=O)N3OS(=O)(=O)[O-])n1 [Compound 802, (2S,5R)-2-(3-amino-1,2,4-oxadiazol-5-yl)-7-oxo-1,6-diaza-bicyclo[3.2.1]octan-6-yl tetrabutylaminooxy sulfonate] | more active than Avibactam | more active than, and/or show a better spectrum of activity than Avibactam
